Literature values as cited in patent US9504662B2, “Composition for skin improvement comprising hexamidines and retinoids” (AMOREPACIFIC CORPORATION, priority 2009, dated 2016).

Settings: 4 μM of retinol vs 100 nM of Isotretinoin; general statement, no method given

## CC1=C(/C=C/C(C)=C/C=C/C(C)=C/CO)C(C)(C)CCC1 [retinol]
  sebum-inhibiting effect: substantially has the same degree of sebum-inhibiting effect as 100 nM of Isotretinoin
